Data as given in patent publication US11013780B2, “Methods of treating female infertility” (Myovant Sciences GmbH, priority 2016, dated 2021).
Where two headings read alike, the source gives them in different places. Where a SMILES comes first, the peptide text is derived from it. [ ]: non-standard residue; d: D form. Arg(Me) = CNC(=N)NCCC[C@H](N)C(=O)O; Hyp = O=C(O)[C@@H]1C[C@@H](O)CN1; azaGly = NNC(=O)O

Tests used:
[1] = Single dose PK, phase 1, healthy Japanese men; type: in vivo, human; details: for AUC(0-inf) / CL/F / Cmax / half-life / Tmax / dose excreted: male, human; for AUC(0-inf) / CL/F / Cmax / half-life / Tmax: plasma; for dose excreted: urine
Procedure: Thirty-seven healthy Japanese male subjects aged 50 to 74 years were enrolled into nine cohorts. Subjects enrolled in the first […] cohorts received 0.001, 0.004, 0.01, 0.04, 0.1, 0.25 or 0.5 mg of API-MA or placebo by single SC bolus. In the 0.001 mg cohort, 3 subjects received API-MA and two received placebo. In the remaining cohorts, 3 subjects received API-MA and one received placebo. Subjects enrolled in the eighth and ninth cohorts received 0.25 or 0.5 mg of API-MA or placebo by single 2-hour SC infusion. In both cohorts, 3 subjects received API-MA and one received placebo. The plasma PK analysis set consisted of 31 subjects (bolus cohorts: 25; infusion cohorts: 6), and the urine PK analysis set consisted of 35 subjects (bolus cohorts: 27; infusion cohorts: 8).
To measure urinary excretion of API-MA, urine specimens were collected at the following nominal times: predose, 0 to 4, 4 to 8, 8 to 12, 12 to 24, 24 to 36, 36 to 48 and 48 to 72 hours postdose.

serum LH and FSH = experiment: Single dose pharmacodynamics (LH, FSH), Japanese men; type: in vivo, human; details: single dose 0.001 to 0.5 mg
Procedure: In the phase 1 clinical study of API-MA, subjects enrolled in the first seven cohorts received single SC bolus doses of 0.001, 0.004, 0.01, 0.04, 0.1, 0.25 or 0.5 mg of API-MA or placebo. Subjects enrolled in the eighth and ninth cohorts received single SC infusion doses of 0.25 or 0.5 mg of API-MA or placebo. The pharmacodynamics of the following hormones were assessed: LH, FSH, dihydroepiandrosterone sulfate (DHEA-S), growth hormone (GH), prolactin (PRL), thyroid-stimulating hormone (TSH), and adrenocorticotropic hormone (ACTH). The pharmacodynamic analysis set consisted of 37 subjects (bolus cohorts: 29; infusion cohorts: 8). […] In addition, blood specimens were collected for the measurement of LH and FSH on the day prior to dosing with API-MA. The time courses of mean serum LH concentrations following a single SC bolus of API-MA at doses ranging from 0.001 mg to 0.5 mg are shown in FIG. 6. The LH concentrations peaked between 12 and 24 hours and generally returned to baseline by 72 hours postdose. The magnitudes and durations of the LH concentration increases were similar across the dose range, 0.001 to 0.5 mg. The LH time courses were similar following a single 2-hour SC infusion of API-MA (data not shown).

serum LH, FSH and PSA = experiment: Multiple-dose pharmacodynamics, Japanese prostate cancer patients; type: in vivo, human
Procedure: The study was a phase 1 study in hormone naïve Japanese prostate cancer patients. Six patients received API-MA doses of 0.5 mg (3 patients) and 1.0 mg (3 patients) administered via 2-hour SC infusion once daily for 14 days. Summary statistics of serum concentrations of LH, FSH, GH, PRL, and TSH, as well as plasma concentration of ACTH and serum concentration of prostate-specific antigen (PSA), at baseline and at each evaluation point, changes from baseline were calculated for each dose, and the data (individual values and mean±standard deviation) were plotted against time for each dose. […] Changes in serum LH were similar between 0.5 and 1.0 mg of API-MA (data for API-MA 1.0 mg/day dose group not shown).

[2] = In vitro distribution into blood cells, dogs; type: in vitro ADME
Procedure: The in vitro distribution ratios of [^14C]API-MA into the blood cells at the concentrations of 0.01, 0.1, 1, and 10 μg/mL API-FB (free form) were 7.8%, 8.0%, 7.1%, and 4.8% for rats, 2.4%, 2.0%, 1.6%, and 1.2% for dogs, and 2.0%, 0.0%, 0.0%, and 0.5% for humans, respectively. […] The in vitro plasma protein binding ratios of [^14C]API-FB in rats, dogs, monkeys, and humans were determined by the ultracentrifugation method. In addition, the protein binding to human serum albumin (HSA), α1-acid glycoprotein (AGP), and HSA/AGP was investigated. […] In rats and dogs, a slight decrease in the binding ratio at the concentration range between 0.1 and 1.0 μg/mL API-FB was observed. In monkeys and humans, the binding was independent of the drug concentrations from 0.01 to 10 μg/mL API-FB.

[3] = sc, 0.001 mg, single SC bolus 0.001 mg, mean
[4] = sc, 0.004 mg, single SC bolus 0.004 mg, mean
[5] = sc, 0.01 mg, single SC bolus 0.01 mg, mean
[6] = sc, 0.04 mg, single SC bolus 0.04 mg, mean
[7] = sc, 0.1 mg, single SC bolus 0.1 mg, mean
[8] = sc, 0.25 mg, single 2-hour SC INF 0.25 mg (plasma N = 1)
[9] = sc, 0.25 mg, single SC bolus 0.25 mg, mean
[10] = sc, 0.5 mg, single 2-hour SC INF 0.5 mg, mean
[11] = sc, 0.5 mg, single SC bolus 0.5 mg, mean
[12] = Japanese prostate cancer patients, 0.5 mg/day 2-hour SC infusion for 14 days

CC(=O)O.CNC(=N)NCCC[C@H](NC(=O)[C@H](CC(C)C)NC(=O)NNC(=O)[C@H](Cc1ccccc1)NC(=O)[C@@H](NC(=O)[C@H](CC(N)=O)NC(=O)[C@@H]1C[C@@H](O)CN1C(=O)[C@@H](Cc1ccc(O)cc1)NC(C)=O)[C@@H](C)O)C(=O)N[C@@H](Cc1c[nH]c2ccccc12)C(N)=O [API-MA, 2-(N-Acetyl-D-tyrosyl-trans-4-hydroxy-L-prolyl-Lasparaginyl-L-threonyl-L-phenylalanyl)-hydrazinocarbonyl-L-leucyl-Nω-methyl-L-arginyl-L-tryptophanamide monoacetate] (Ac-[dY][Hyp]NTF[azaGly]L[Arg(Me)]W-NH2)
Time by which urinary excretion was essentially complete ([1]; cumulative urinary excretion): ≤ 24 h | AUC(0-inf) [1, 3]: 0.0541 ng·h/mL | CL/F [1, 3]: 310 mL/min | Cmax [1, 3]: 0.0201 ng/mL | half-life ([1]; sc, 0.001 mg, single SC bolus 0.001 mg, mean, read-out: T½ (converted)): 1.59 h | Tmax ([1]; sc, 0.001 mg, single SC bolus 0.001 mg, read-out: Tmax, median (range)): 0.5 h | AUC(0-inf) [1, 4]: 0.205 ng·h/mL | CL/F [1, 4]: 330 mL/min | Cmax [1, 4]: 0.00617 ng/mL | half-life ([1]; sc, 0.004 mg, single SC bolus 0.004 mg, mean, read-out: T½ (converted)): 1.91 h | Tmax ([1]; sc, 0.004 mg, single SC bolus 0.004 mg, read-out: Tmax, median (range)): 0.5 h | AUC(0-inf) [1, 5]: 0.671 ng·h/mL | CL/F [1, 5]: 250 mL/min | Cmax [1, 5]: 0.221 ng/mL | half-life ([1]; sc, 0.01 mg, single SC bolus 0.01 mg, mean, read-out: T½ (converted)): 1.82 h | Tmax ([1]; sc, 0.01 mg, single SC bolus 0.01 mg, read-out: Tmax, median (range)): 0.5 h | AUC(0-inf) [1, 6]: 2.61 ng·h/mL | CL/F [1, 6]: 278 mL/min | Cmax [1, 6]: 0.966 ng/mL | half-life ([1]; sc, 0.04 mg, single SC bolus 0.04 mg, mean, read-out: T½ (converted)): 3.35 h | Tmax ([1]; sc, 0.04 mg, single SC bolus 0.04 mg, read-out: Tmax, median (range)): 0.5 h | AUC(0-inf) [1, 7]: 5.79 ng·h/mL | CL/F [1, 7]: 298 mL/min | Cmax [1, 7]: 2.42 ng/mL | half-life ([1]; sc, 0.1 mg, single SC bolus 0.1 mg, mean, read-out: T½ (converted)): 3.58 h | Tmax ([1]; sc, 0.1 mg, single SC bolus 0.1 mg, read-out: Tmax, median (range)): 0.375 h | AUC(0-inf) [1, 8]: 13.3 ng·h/mL | CL/F [1, 8]: 313 mL/min | Cmax [1, 8]: 4.02 ng/mL | Tmax ([1]; sc, 0.25 mg, single 2-hour SC INF 0.25 mg (plasma N = 1), read-out: Tmax, median (range)): 2.25 h | half-life ([1]; sc, 0.25 mg, single 2-hour SC INF 0.25 mg (plasma N = 1), read-out: T½ (converted)): 3.77 h | AUC(0-inf) [1, 9]: 18.3 ng·h/mL | CL/F [1, 9]: 228 mL/min | Cmax [1, 9]: 5.9 ng/mL | half-life ([1]; sc, 0.25 mg, single SC bolus 0.25 mg, mean, read-out: T½ (converted)): 4.09 h | Tmax ([1]; sc, 0.25 mg, single SC bolus 0.25 mg, read-out: Tmax, median (range)): 0.75 h | AUC(0-inf) [1, 10]: 34.6 ng·h/mL | CL/F [1, 10]: 243 mL/min | Cmax [1, 10]: 8.23 ng/mL | half-life ([1]; sc, 0.5 mg, single 2-hour SC INF 0.5 mg, mean, read-out: T½ (converted)): 4.02 h | Tmax ([1]; sc, 0.5 mg, single 2-hour SC INF 0.5 mg, read-out: Tmax, median (range)): 2.5 h | AUC(0-inf) [1, 11]: 30 ng·h/mL | CL/F [1, 11]: 282 mL/min | Cmax [1, 11]: 9.05 ng/mL | half-life ([1]; sc, 0.5 mg, single SC bolus 0.5 mg, mean, read-out: T½ (converted)): 4.27 h | Tmax ([1]; sc, 0.5 mg, single SC bolus 0.5 mg, read-out: Tmax, median (range)): 0.5 h | Tmax ([1]; sc, SC bolus, read-out: Median Tmax, range over cohorts): 0.375 to 0.75 h | half-life ([1]; subcutaneous, 0.5 mg, 0.25 and 0.5 mg, read-out: Mean T1/2 at the highest doses): 3.77 to 4.27 h | dose excreted ([1]; sc, 0.001 mg, single SC bolus 0.001 mg, mean, read-out: Fe (urine)): 0% | dose excreted ([1]; sc, 0.004 mg, single SC bolus 0.004 mg, mean, read-out: Fe (urine)): 6.16% | dose excreted ([1]; sc, 0.01 mg, single SC bolus 0.01 mg, mean, read-out: Fe (urine)): 5.4% | dose excreted ([1]; sc, 0.04 mg, single SC bolus 0.04 mg, mean, read-out: Fe (urine)): 4.24% | dose excreted ([1]; sc, 0.1 mg, single SC bolus 0.1 mg, mean, read-out: Fe (urine)): 5.2% | dose excreted ([1]; sc, 0.25 mg, single 2-hour SC INF 0.25 mg, mean, read-out: Fe (urine)): 6.21% | dose excreted ([1]; sc, 0.25 mg, single SC bolus 0.25 mg, mean, read-out: Fe (urine)): 7.1% | dose excreted ([1]; sc, 0.5 mg, single 2-hour SC INF 0.5 mg, mean, read-out: Fe (urine)): 5.22% | dose excreted ([1]; sc, 0.5 mg, single SC bolus 0.5 mg, mean, read-out: Fe (urine)): 6.33% | dose excreted ([1]; sc, 0.004 to 0.5 mg, bolus and infusion, read-out: Mean Fe, range over cohorts): 4.24 to 7.1% | API-MA in urine ([1]; single SC bolus 0.001 mg): No API-MA was detected | Time of FSH return to baseline / predose level (serum LH and FSH): ≤ 72 h | Time of LH return to baseline (serum LH and FSH): ≤ 72 h | Serum FSH levels (serum LH, FSH and PSA; [12]): completely suppressed from Day 6 to Day 16 | Serum LH levels (serum LH, FSH and PSA; [12]): completely suppressed from Day 6 to Day 16 | Serum PSA decrease compared to baseline (serum LH, FSH and PSA; patients receiving 0.5 mg): approximately 40% | Distribution ratio into blood cells ([2]; 0.01 μg/mL API-FB): 2.4% | Distribution ratio into blood cells ([2]; 0.1 μg/mL API-FB): 2.0% | Distribution ratio into blood cells ([2]; 1 μg/mL API-FB): 1.6% | Distribution ratio into blood cells ([2]; 10 μg/mL API-FB): 1.2%
